Data published in the NIST ThermoML archive (doi:10.1021/je101361u).

Assay: xn = mol fraction of the nth substance listed
Settings: 101.3 kPa, Liquid, Vibrating tube method

COCCOCCOC [2,5,8-trioxanonane] + ClCCCl
mass density [kg/m3]
Settings	308.15 K	313.15 K	318.15 K	323.15 K	328.15 K	333.15 K
x2 = 0.0252	–	928.2	923.14	918.07	912.99	907.88
x2 = 0.0508	–	932.81	927.72	922.62	917.5	912.36
x2 = 0.0751	–	937.26	932.15	927.01	921.85	916.68
x2 = 0.1	–	941.89	936.74	931.58	926.39	921.19
x2 = 0.1502	–	951.65	946.43	941.2	935.95	930.67
x2 = 0.1999	–	961.71	956.42	951.12	945.79	940.45
x2 = 0.25	–	972.4	967.04	961.66	956.26	950.83
x2 = 0.3002	–	983.61	978.16	972.68	967.18	961.67
x2 = 0.3501	–	995.21	989.69	984.14	978.56	972.96
x2 = 0.4	1013.05	1007.46	1001.83	996.19	990.53	984.84
x2 = 0.45	1025.99	1020.29	1014.56	1008.81	1003.05	997.27
x2 = 0.5003	1039.78	1033.98	1028.16	1022.31	1016.44	1010.54
x2 = 0.5499	1054.03	1048.12	1042.19	1036.25	1030.26	1024.25
x2 = 0.5999	1069.2	1063.17	1057.13	1051.05	1044.95	1038.81
x2 = 0.6501	1085.36	1079.21	1073.04	1066.84	1060.6	1054.34
x2 = 0.7	1102.36	1096.08	1089.77	1083.44	1077.08	1070.67
x2 = 0.75	1120.21	1113.78	1107.32	1100.83	1094.32	1087.77
x2 = 0.8	1139.52	1132.93	1126.31	1119.65	1112.98	1106.28
x2 = 0.8499	1159.94	1153.19	1146.4	1139.57	1132.71	1125.84
x2 = 0.9	1181.94	1175	1168.02	1160.99	1153.95	1146.89
x2 = 0.925	1193.47	1186.42	1179.34	1172.21	1165.08	1157.9
x2 = 0.9494	1205.37	1198.22	1191.02	1183.78	1176.54	1169.26
x2 = 0.975	1218.05	1210.78	–	–	–	–
